Assay results as given in patent US11517628B2, “Particles for spatiotemporal release of agents” (Yale University, priority 2018, dated 2022).

Test system: bone marrow-derived dendritic cells (BMDCs)
Test: BMDC surface marker expression by FACS
Assay type: cell-based, mouse
Procedure: Bone marrow-derived dendritic cells (BMDCs) were generated as described by Zanoni et al. Generation of mouse bone marrow-derived dendritic cells (BM-DCs) (2009). Briefly, bone marrow progenitor cells were isolated from the femur of C57BL/6J mouse and cultured with media containing 20 ng/ml of GM-CSF. Cells were replenished with fresh media after 5 days of culture and collected after 48 hours of media replenishment. Naïve CD4 T cells and T cells were collected from OT-II splenocytes by using naïve CD4 T cell or CD3 T cell isolation kit (STEMCELL Technologies), respectively.
When ready for flow cytometry (FACS) analysis, cells were transferred to a 96-well U-bottom plate and spun at 500 g for 5 minutes. […]
FACS was performed by either LSR-II (Becton Dickinson) or Attune NxT flow cytometer. […] All FACS data was analyzed on FlowJo software (Tree Star Inc., Ashland, Oreg.).
DCs are one of the best antigen presenting cells that express costimulatory molecules and present antigens, which are modulated by mTOR signaling and antigen processing, respectively. […] DCs from the bone marrow (BMDCs) were harvested and treated with 100 ng/ml of free RAPA or 2 μg/ml of free OVA for either 72 hours or for 24 hours and analyzed by FACS. In all following experiments, BMDCs were gated on CD11c+, live cells, and surface markers of BMDCs were analyzed by flow cytometry. […]

**Q.** Which “Expression of surface markers PD-L1, CD80, CD86, and MHC II” value (free RAPA 100 ng/ml, 72 hours compared to 24 hours) does the source give for CO[C@H]1C[C@@H]2CC[C@@H](C)[C@@](O)(O2)C(=O)C(=O)N2CCCC[C@H]2C(=O)O[C@H]([C@H](C)C[C@@H]2CC[C@@H](O)[C@H](OC)C2)CC(=O)[C@H](C)/C=C(\C)[C@@H](O)[C@@H](OC)C(=O)[C@H](C)C[C@H](C)/C=C/C=C/C=C/1C [free RAPA, Rapamycin] here?
**A.** Its value is “diminished expression of surface markers”.

B1: free OVA: Ovalbumin, the model antigen, given soluble (protein, UniProt P01012 2-386, looked up)
Ovalbumin: GSIGAASMEFCFDVFKELKVHHANENIFYCPIAIMSALAMVYLGAKDSTRTQINKVVRFDKLPGFGDSIEAQCGTSVNVHSSLRDILNQITKPNDVYSFSLASRLYAEERYPILPEYLQCVKELYRGGLEPINFQTAADQARELINSWVESQTNGIIRNVLQPSSVDSQTAMVLVNAIVFKGLWEKAFKDEDTQAMPFRVTEQESKPVQMMYQIGLFRVASMASEKMKILELPFASGTMSMLVLLPDEVSGLEQLESIINFEKLTEWTSSNVMEERKIKVYLPRMKMEEKYNLTSVLMAMGITDVFSSSANLSGISSAESLKISQAVHAAHAEINEAGREVVGSAEAGVDAASVSEEFRADHPFLFCIKHIATNAVLFFGRCVSP
**Q.** For B1, which “Expression of surface markers PD-L1, CD80, CD86, and MHC II” value (free OVA 2 μg/ml, 72 hours vs 24 hours) is on record?
**A.** The value was “no differences were observed”.
